Measured values published in patent US20250340574A1, “MODULATORS OF CYSTIC FIBROSIS TRANSMEMBRANE CONDUCTANCE REGULATOR” (Vertex Pharmaceuticals Incorporated, priority 2022, published 2025).

Target: T1, CFTR (F508del/MF-HBE cells) (Homo sapiens, UniProt P13569, DEL508-508)
T1 construct: human bronchial epithelial (HBE) cells derived from CF subjects heterozygous for F508del and a minimal function CFTR mutation (F508del/MF-HBE); endogenous in cells; host or cells: Primary human bronchial epithelial cells from CF subjects (F508del/MF genotype), differentiated at an air-liquid interface
T1 sequence (P13569 with tags, fused parts or gaps DEL508-508): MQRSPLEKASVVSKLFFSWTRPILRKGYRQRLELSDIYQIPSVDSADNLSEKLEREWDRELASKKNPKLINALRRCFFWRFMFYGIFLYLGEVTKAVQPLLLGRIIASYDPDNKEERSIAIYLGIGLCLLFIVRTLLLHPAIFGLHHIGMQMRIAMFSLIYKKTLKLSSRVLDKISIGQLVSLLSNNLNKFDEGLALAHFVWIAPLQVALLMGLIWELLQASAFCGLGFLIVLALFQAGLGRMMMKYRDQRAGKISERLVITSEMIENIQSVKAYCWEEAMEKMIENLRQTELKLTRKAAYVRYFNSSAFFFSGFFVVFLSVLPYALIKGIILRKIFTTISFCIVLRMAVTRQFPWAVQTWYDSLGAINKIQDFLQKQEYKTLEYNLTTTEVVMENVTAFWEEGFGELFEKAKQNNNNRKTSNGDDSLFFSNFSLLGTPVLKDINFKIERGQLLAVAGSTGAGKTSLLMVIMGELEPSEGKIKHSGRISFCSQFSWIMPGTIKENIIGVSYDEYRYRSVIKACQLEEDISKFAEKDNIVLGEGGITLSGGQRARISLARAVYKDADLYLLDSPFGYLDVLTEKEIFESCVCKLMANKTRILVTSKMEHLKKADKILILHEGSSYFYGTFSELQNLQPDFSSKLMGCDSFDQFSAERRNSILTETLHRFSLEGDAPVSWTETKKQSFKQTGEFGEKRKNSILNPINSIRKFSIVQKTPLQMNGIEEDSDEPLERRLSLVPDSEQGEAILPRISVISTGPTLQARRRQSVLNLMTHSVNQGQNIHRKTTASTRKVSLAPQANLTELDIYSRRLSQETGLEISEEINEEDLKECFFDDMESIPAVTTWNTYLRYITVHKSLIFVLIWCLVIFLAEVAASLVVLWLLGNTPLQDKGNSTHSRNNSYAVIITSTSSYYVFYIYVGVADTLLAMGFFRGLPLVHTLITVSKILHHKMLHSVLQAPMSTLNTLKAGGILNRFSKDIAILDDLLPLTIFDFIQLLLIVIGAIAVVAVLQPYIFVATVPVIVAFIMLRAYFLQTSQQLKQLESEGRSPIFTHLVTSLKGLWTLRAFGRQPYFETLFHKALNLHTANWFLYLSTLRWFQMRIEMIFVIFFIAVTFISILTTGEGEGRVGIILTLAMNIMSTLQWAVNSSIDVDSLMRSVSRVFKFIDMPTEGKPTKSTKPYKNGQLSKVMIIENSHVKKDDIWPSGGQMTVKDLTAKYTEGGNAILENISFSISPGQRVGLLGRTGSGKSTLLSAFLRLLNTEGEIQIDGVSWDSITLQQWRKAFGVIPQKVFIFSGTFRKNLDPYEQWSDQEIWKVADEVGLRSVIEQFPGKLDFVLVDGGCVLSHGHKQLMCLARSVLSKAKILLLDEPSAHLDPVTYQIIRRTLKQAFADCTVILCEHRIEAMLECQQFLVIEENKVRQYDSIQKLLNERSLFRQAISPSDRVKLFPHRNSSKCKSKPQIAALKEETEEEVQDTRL
Experiment: Ussing chamber assay of CFTR-mediated short-circuit currents, Assay D (single concentration of 1 μM)
Assay type: cell-based
Details: with 44 nM potentiator and 18 μM Tezacaftor, 20% human serum; for D activity at 1 μM (%): 18-24 hours
Method: Ussing chamber experiments were performed using human bronchial epithelial (HBE) cells derived from CF subjects heterozygous for F508del and a minimal function CFTR mutation (F508del/MF-HBE) and cultured as previously described (Neuberger T, Burton B, Clark H, Van Goor F Methods Mol Biol 2011:741:39-54). After four days the apical media was removed, and the cells were grown at an air liquid interface for >14 days prior to use.
To isolate the CFTR-mediated short-circuit (ISC) current, F508del/MF-HBE grown on Costar® Snapwell™ cell culture inserts were mounted in an Ussing chamber and the transepithelial ISC was measured under voltage-clamp recording conditions (Vhold=0 mV) at 37° C. The basolateral solution contained (in mM) 145 NaCl, 0.83 K2HPO4, 3.3 KH2PO4, 1.2 MgCl2, 1.2 CaCl2, 10 Glucose, 10 HEPES (pH adjusted to 7.4 with NaOH) and the apical solution contained (in mM) 145 NaGluconate, 1.2 MgCl2, 1.2 CaCl2, 10 glucose, 10 HEPES (pH adjusted to 7.4 with NaOH) and 30 μM amiloride to block the epithelial sodium channel. Forskolin (20 μM) was added to the apical surface to activate CFTR, followed by apical addition of a CFTR inhibitor cocktail consisting of BPO, GlyH-101, and CFTR inhibitor 172 (each at 20 μM final assay concentration) to specifically isolate CFTR currents. The CFTR-mediated ISC (μA/cm^2) for each condition was determined from the peak forskolin response to the steady-state current following inhibition.
The activity of the CFTR corrector compounds on the CFTR-mediated ISC was determined in Ussing chamber studies as described above. The F508del/MF-HBE cell cultures were either incubated with the corrector compounds at a range of concentrations in combination with 33 nM (6R,12R)-17-amino-12-methyl-6,15-bis(trifluoromethyl)-13,19-dioxa-3,4,18-triazatricyclo[12.3.1.12,5]nonadeca-1(18),2,4,14,16-pentaen-6-ol and 18 μM Tezacaftor or were incubated with the corrector compounds at a single fixed concentration of 1 μM in combination with 44 nM (6R,12R)-17-amino-12-methyl-6,15-bis(trifluoromethyl)-13,19-dioxa-3,4,18-triazatricyclo[12.3.1.12,5]nonadeca-1(18),2,4,14,16-pentaen-6-ol and 18 μM Tezacaftor for 18-24 hours at 37° C. and in the presence of 20% human serum. The concentration of corrector compounds with 44 nM or 33 nM (6R,12R)-17-amino-12-methyl-6,15-bis(trifluoromethyl)-13,19-dioxa-3,4,18-triazatricyclo[12.3.1.12,5]nonadeca-1(18),2,4,14,16-pentaen-6-ol and 18 μM Tezacaftor during the 18-24 hours incubations was kept constant throughout the Ussing chamber measurement of the CFTR-mediated ISC to ensure compounds were present throughout the entire experiment. The efficacy and potency of the putative F508del correctors was compared to that of the known Vertex corrector, (14S)-8-[3-(2-{Dispiro[2.0.2.1]heptan-7-yl}ethoxy)-1H-pyrazol-1-yl]-12,12-dimethyl-2λ^6-thia-3,9,11,18,23-pentaazatetracyclo[17.3.1.111,14.05,10]tetracosa-1(22),5,7,9,19(23),20-hexaene-2,2,4-trione, in combination with 18 μM Tezacaftor and 1 μM Ivacaftor.
• Assay A: 0.1 μM to 25 μM, 6 concentrations • Assay B: 0.00001 μM to 25 μM, 12 concentrations • Assay C: 0.026 μM to 25 μM, 6 concentrations • Assay D: Activity at single concentration of 1 μM

Row | Structure (SMILES) | D activity at 1 μM (%) | D act. at 1 μM (%)
1 | Cc1cccc(C)c1-c1cc2nc(n1)NS(=O)(=O)c1cccc(c1)C(=O)N(Cc1cnc3oc(C4CC4)cc3n1)[C@@H](CC1CC(C)(C)C1)CO2 (single isomer, unassigned) [Compound I-166, 12-[(6-cyclopropylfuro[2,3-b]pyrazin-2-yl)methyl]-11-[(3,3-dimethylcyclobutyl)methyl]-6-(2,6-dimethylphenyl)-2,2-dioxo-9-oxa-2λ^6-thia-3,5,12,19-tetrazatricyclo[12.3.1.14,8]nonadeca-1(18),4(19),5,7,14,16-hexaen-13-one] | ++ (++ is 30-60%) | 
2 | Cc1cccc(C)c1-c1cc2nc(n1)NS(=O)(=O)c1cccc(c1)C(=O)N(Cc1cnc3oc([C@](C)(O)CO)cc3n1)[C@H](CC1(C)CC1)CO2 (single isomer, unassigned) [IV-14] |  | +++ (+++ is >60%)
3 | Cc1cccc(C)c1-c1cc2nc(n1)NS(=O)(=O)c1cccc(c1)C(=O)N(Cc1cnc3oc([C@](C)(O)CO)cc3n1)[C@H](CC1(C)CC1)CO2 (single isomer, unassigned) [IV-15] |  | +++ (+++ is >60%)
4 | Cc1cccc(C)c1-c1cc2nc(n1)NS(=O)(=O)c1cccc(c1)C(=O)N(Cc1cnc3cc(C4(C)CC4)n(C)c3n1)[C@@H](C(C1CCC1)C1CCC1)CO2 (single isomer, unassigned) [IV-21, 11-[di(cyclobutyl)methyl]-6-(2,6-dimethylphenyl)-12-[[5-methyl-6-(1-methylcyclopropyl)pyrrolo[2,3-b]pyrazin-3-yl]methyl]-2,2-dioxo-9-oxa-2λ^6-thia-3,5,12,19-tetrazatricyclo[12.3.1.14,8]nonadeca-1(18),4(19),5,7,14,16-hexaen-13-one] |  | ++ (++ is 30-60%)
5 | CCC(C)(C)C[C@H]1COc2cc(-c3c(C)cccc3C)nc(n2)NS(=O)(=O)c2cccc(c2)C(=O)N1Cc1cnc2oc(C(C)C)cc2n1 (stereo in doubt) [Compound I-39] | ++ (++ is 30-60%) | 
6 | Cc1cccc(C)c1-c1cc2nc(n1)NS(=O)(=O)c1cccc(c1)C(=O)N(Cc1cnc3oc(C4CC4)cc3n1)[C@H](C[C@@H]1CCCO1)CO2 (stereo in doubt) [Compound I-45] | +++ (+++ is >60%) | 
7 | Cc1cccc(C)c1-c1cc2nc(n1)NS(=O)(=O)c1cccc(c1)C(=O)N(Cc1cnc3oc(C(C)C)c(C(F)(F)F)c3n1)[C@H](CCC1(C)CC1)CO2 (stereo in doubt) [Compound I-127] | +++ (+++ is >60%) | 
8 | Cc1cccc(C)c1-c1cc2nc(n1)NS(=O)(=O)c1cccc(c1)C(=O)N(Cc1cnc3c(n1)CN(C(C)C)C3=O)[C@@H](CCC1(C)CC1)CO2 (stereo in doubt) [III-19] | +++ (+++ is >60%) | 
9 | Cc1cccc(C)c1-c1cc2nc(n1)NS(=O)(=O)c1cccc(c1)C(=O)N(Cc1cnc3c(n1)C(=O)N(C(C)C)C3)[C@@H](CCC1(C)CC1)CO2 (stereo in doubt) [III-22] | +++ (+++ is >60%) | 
10 | Cc1cccc(C)c1-c1cc2nc(n1)NS(=O)(=O)c1cccc(c1)C(=O)N(Cc1cnc3c(n1)C(=O)N(C(C)C)[C@@H]3C)[C@H](CC(C)(C)C)CO2 (stereo in doubt) [III-23] | +++ (+++ is >60%) | 
11 | Cc1cccc(C)c1-c1cc2nc(n1)NS(=O)(=O)c1cccc(c1)C(=O)N(Cc1cnc3oc(C(C)C)cc3n1)[C@H](CC(C)C)CCO2 [Compound I-5] | +++ (+++ is >60%) | 
12 | Cc1cccc(C)c1-c1cc2nc(n1)NS(=O)(=O)c1cccc(c1)C(=O)N(Cc1cnc3oc(C(C)C)cc3n1)[C@H](C[C@@H]1CCCCO1)CO2 [Compound I-8] | +++ (+++ is >60%) | 
13 | Cc1cccc(C)c1-c1cc2nc(n1)NS(=O)(=O)c1cccc(c1)C(=O)N(Cc1cnc3cc(C(C)C)n(C)c3n1)[C@H](C[C@@H]1CCCCO1)CO2 [Compound I-15, (11R)-6-(2,6-dimethylphenyl)-12-[(6-isopropyl-5-methyl-pyrrolo[2,3-b]pyrazin-3-yl)methyl]-2,2-dioxo-11-[[(2S)-tetrahydropyran-2-yl]methyl]-9-oxa-2λ^6-thia-3,5,12,19-tetrazatricyclo[12.3.1.14,8]nonadeca-1(18),4(19),5,7,14,16-hexaen-13-one] | +++ (+++ is >60%) | 
